From PubChem BioAssay (NCI)
Where “and” joins values, the source holds several entries; their conditions need not be identical. Equal values may be shown once.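 These data come from cells grown in 96-well plates and exposed to compound for 48 hours at five concentrations. The concentration for 50% growth inhibition is given as GI50. TGI marks complete inhibition of growth.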

Assays:
Experiment in all cases: NCI tumour cell line growth inhibition, 48 h
MALME-3M melanoma = system: MALME-3M melanoma
NCI-H460 lung = system: NCI-H460 lung
UACC-257 melanoma = system: UACC-257 melanoma
A549 NSCLC = system: A549 NSCLC
CCRF-CEM leukemia = system: CCRF-CEM leukemia
SK-MEL-2 melanoma = system: SK-MEL-2 melanoma
LOX IMVI melanoma = system: LOX IMVI melanoma
SK-MEL-28 melanoma = system: SK-MEL-28 melanoma
HOP-92 NSCLC = system: HOP-92 NSCLC
SF-295 CNS = system: SF-295 CNS
MDA-MB-231 breast = system: MDA-MB-231 breast
U251 CNS = system: U251 CNS
HCT-116 colon = system: HCT-116 colon
NCI-H226 lung = system: NCI-H226 lung
BT-549 breast = system: BT-549 breast
K-562 leukemia = system: K-562 leukemia
SW-620 colon = system: SW-620 colon
OVCAR-5 ovarian = system: OVCAR-5 ovarian
UO-31 renal = system: UO-31 renal
SN12C renal = system: SN12C renal
NCI-H23 lung = system: NCI-H23 lung
MOLT-4 leukemia = system: MOLT-4 leukemia
COLO 205 colon = system: COLO 205 colon
CAKI-1 renal = system: CAKI-1 renal
SK-MEL-5 melanoma = system: SK-MEL-5 melanoma
SNB-75 CNS = system: SNB-75 CNS
KM12 colon = system: KM12 colon
TK-10 renal = system: TK-10 renal
T-47D breast = system: T-47D breast
HCC-2998 colon = system: HCC-2998 colon
PC-3 prostate = system: PC-3 prostate
MDA-MB-435 = system: MDA-MB-435
RXF 393 renal = system: RXF 393 renal
HOP-62 NSCLC = system: HOP-62 NSCLC
OVCAR-3 ovarian = system: OVCAR-3 ovarian
SF-268 CNS = system: SF-268 CNS
NCI-H522 lung = system: NCI-H522 lung
SF-539 CNS = system: SF-539 CNS
EKVX NSCLC = system: EKVX NSCLC
OVCAR-4 ovarian = system: OVCAR-4 ovarian
SNB-19 CNS = system: SNB-19 CNS
HCT-15 colon = system: HCT-15 colon
M14 melanoma = system: M14 melanoma
HL-60(TB) leukemia = system: HL-60(TB) leukemia
786-0 renal = system: 786-0 renal
MDA-N = system: MDA-N
UACC-62 melanoma = system: UACC-62 melanoma
ACHN renal = system: ACHN renal
MCF7 breast = system: MCF7 breast
NCI/ADR-RES ovarian = system: NCI/ADR-RES ovarian
OVCAR-8 ovarian = system: OVCAR-8 ovarian
A498 renal = system: A498 renal
HT29 colon = system: HT29 colon
IGROV1 ovarian = system: IGROV1 ovarian
DU-145 prostate = system: DU-145 prostate
SK-OV-3 ovarian = system: SK-OV-3 ovarian

CCCCCCCCCCCC[C@H](O)[C@H]1CC[C@H]([C@H](O)CCCC[C@H](O)CCCCC[C@@H](O)CC2=C[C@H](C)OC2=O)O1
TGI (MALME-3M melanoma): 32.2 µM | GI50 (NCI-H460 lung): 0.986 µM | TGI (NCI-H460 lung): 22.9 µM | GI50 (UACC-257 melanoma): 1.69 µM | TGI (UACC-257 melanoma): 5.81 µM and 19 µM | GI50 (A549 NSCLC): 12.4 µM | TGI (A549 NSCLC): 28.5 µM | GI50 (CCRF-CEM leukemia): 5.62 µM | TGI (CCRF-CEM leukemia): 27.3 µM | GI50 (SK-MEL-2 melanoma): 19.9 µM | TGI (SK-MEL-2 melanoma): 36.2 µM | GI50 (LOX IMVI melanoma): 2.19 µM | TGI (LOX IMVI melanoma): 3.72 µM and 22.9 µM | GI50 (SK-MEL-28 melanoma): 20 µM | TGI (SK-MEL-28 melanoma): 41.2 µM | GI50 (HOP-92 NSCLC): 23.7 µM | TGI (HOP-92 NSCLC): 52.9 µM | GI50 (SF-295 CNS): 3 µM | TGI (SF-295 CNS): 20.1 µM | GI50 (MDA-MB-231 breast): 16.2 µM | TGI (MDA-MB-231 breast): 40.9 µM | TGI (U251 CNS): > 100 µM | GI50 (HCT-116 colon): 0.636 µM | TGI (HCT-116 colon): 22.7 µM | GI50 (NCI-H226 lung): 17.4 µM | TGI (NCI-H226 lung): 43.3 µM | GI50 (BT-549 breast): 12.7 µM | GI50 (K-562 leukemia): 0.0621 µM | TGI (K-562 leukemia): 26.9 µM | GI50 (SW-620 colon): 21.6 µM | TGI (SW-620 colon): 64 µM | TGI (OVCAR-5 ovarian): 31.7 µM | GI50 (UO-31 renal): 14.6 µM | TGI (UO-31 renal): 7.44 µM and 28.8 µM | GI50 (SN12C renal): 17.8 µM | TGI (SN12C renal): 38.8 µM | GI50 (NCI-H23 lung): 0.46 µM | TGI (NCI-H23 lung): 22.2 µM | GI50 (MOLT-4 leukemia): 3.67 µM | TGI (MOLT-4 leukemia): 24.9 µM | GI50 (COLO 205 colon): 16.4 µM | TGI (COLO 205 colon): 32.7 µM | GI50 (CAKI-1 renal): 17.5 µM | TGI (CAKI-1 renal): 36.4 µM | GI50 (SK-MEL-5 melanoma): 0.0602 µM | TGI (SK-MEL-5 melanoma): 15.6 µM | GI50 (SNB-75 CNS): 16.3 µM | TGI (SNB-75 CNS): 31.7 µM | GI50 (KM12 colon): 16.9 µM | TGI (KM12 colon): 35.9 µM | GI50 (TK-10 renal): 13.1 µM | TGI (TK-10 renal): 26.8 µM | GI50 (T-47D breast): 2.82 µM | TGI (T-47D breast): 21.6 µM | TGI (HCC-2998 colon): 33.9 µM | GI50 (PC-3 prostate): 16.2 µM | TGI (PC-3 prostate): 29.8 µM | GI50 (MDA-MB-435): 15.6 µM | TGI (MDA-MB-435): 8.48 µM and 38.8 µM | TGI (RXF 393 renal): 33.2 µM | GI50 (HOP-62 NSCLC): 17.5 µM | TGI (HOP-62 NSCLC): 31.8 µM | GI50 (OVCAR-3 ovarian): 17.2 µM | TGI (OVCAR-3 ovarian): 9.34 µM and 32.4 µM | GI50 (SF-268 CNS): 17 µM | TGI (SF-268 CNS): 40.3 µM | TGI (NCI-H522 lung): 19.7 µM | TGI (SF-539 CNS): 29.5 µM | GI50 (EKVX NSCLC): 2.5 µM | TGI (EKVX NSCLC): 10.9 µM | TGI (OVCAR-4 ovarian): 36.1 µM | GI50 (SNB-19 CNS): 13.3 µM | TGI (SNB-19 CNS): 27.7 µM | GI50 (HCT-15 colon): 18.7 µM | TGI (HCT-15 colon): 57.8 µM | GI50 (M14 melanoma): 14.2 µM | TGI (M14 melanoma): 27.4 µM | TGI (HL-60(TB) leukemia): 8.05 µM | GI50 (786-0 renal): 18.5 µM | TGI (786-0 renal): 34.5 µM | GI50 (MDA-N): 14.3 µM | TGI (MDA-N): 30.5 µM | TGI (UACC-62 melanoma): 7.17 µM | GI50 (ACHN renal): 11.2 µM | TGI (ACHN renal): 5.5 µM and 23.8 µM | GI50 (MCF7 breast): 10.9 µM | TGI (MCF7 breast): 25.4 µM | GI50 (NCI/ADR-RES ovarian): 14.5 µM | TGI (NCI/ADR-RES ovarian): 34.4 µM

COc1ccc(Cc2nc3cc([N+](=O)[O-])ccc3n2C[C@@H]2CCCN3CCCCC23)cc1 (stereo partly specified)
TGI (MALME-3M melanoma): 32.1 µM | TGI (NCI-H460 lung): > 100 µM | TGI (UACC-257 melanoma): 31.5 µM | TGI (A549 NSCLC): 35 µM | TGI (CCRF-CEM leukemia): 29.2 µM | TGI (SK-MEL-2 melanoma): 33.2 µM | TGI (LOX IMVI melanoma): 36.4 µM | TGI (SK-MEL-28 melanoma): 35.1 µM | TGI (HOP-92 NSCLC): 76.8 µM | TGI (OVCAR-8 ovarian): > 100 µM | TGI (SF-295 CNS): 35.8 µM | TGI (MDA-MB-231 breast): 43 µM | TGI (U251 CNS): 50.6 µM | TGI (HCT-116 colon): 38.2 µM | TGI (NCI-H226 lung): > 100 µM | TGI (BT-549 breast): 37.5 µM | TGI (K-562 leukemia): 57.6 µM | TGI (A498 renal): 35.2 µM | TGI (SW-620 colon): 81.8 µM | TGI (OVCAR-5 ovarian): 82 µM | TGI (HT29 colon): 38.4 µM | TGI (UO-31 renal): 21.1 µM | TGI (NCI-H23 lung): 87.2 µM | TGI (IGROV1 ovarian): 48.1 µM | TGI (MOLT-4 leukemia): 60.1 µM | TGI (COLO 205 colon): 27 µM | TGI (CAKI-1 renal): 45.3 µM | TGI (SK-MEL-5 melanoma): 27.9 µM | TGI (SNB-75 CNS): > 100 µM | TGI (KM12 colon): 29.8 µM | TGI (TK-10 renal): 92.8 µM | TGI (T-47D breast): > 100 µM | TGI (HCC-2998 colon): 34.1 µM | TGI (PC-3 prostate): > 100 µM | TGI (MDA-MB-435): 38.1 µM | TGI (RXF 393 renal): 39.8 µM | TGI (HOP-62 NSCLC): 43.6 µM | TGI (DU-145 prostate): > 100 µM | TGI (OVCAR-3 ovarian): 41.1 µM | TGI (EKVX NSCLC): 76.5 µM | TGI (OVCAR-4 ovarian): 61.3 µM | TGI (SNB-19 CNS): 84.8 µM | TGI (HCT-15 colon): 56.5 µM | TGI (M14 melanoma): 27.2 µM | TGI (HL-60(TB) leukemia): 19 µM | TGI (786-0 renal): 40 µM | TGI (MDA-N): 33.8 µM | TGI (SK-OV-3 ovarian): 46.4 µM | TGI (UACC-62 melanoma): 31.3 µM | TGI (ACHN renal): > 100 µM | TGI (MCF7 breast): > 100 µM | TGI (NCI/ADR-RES ovarian): 60.6 µM
